Results on 15 compounds are retold here after PubChem BioAssay AID328 (DTP/NCI, 2004).

Where “and” joins values, the source holds several entries; their conditions need not be identical. Identical values can stand only once. Inconclusive results and toxic doses are left out.

For this assay, the system named is BDF1 mice, P388 leukemia ip, median survival T/C. In words: NCI In Vivo Anticancer Drug Screen. Data for tumor model P388 Leukemia (intraperitoneal) in B6D2F1 (BDF1) mice. The note with it: endpoint: median survival time, higher = longer survival. The essentials: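 In tumour-bearing mice, survival after compound treatment is set against the vehicle group and given as a quotient.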

[1] abbreviates: dose: 50.0 mg/kg/injection, schedule: Q04DX003 (ip), vehicle: saline with Tween-80.
The mark [2] stands for this setting: dose: 100.0 mg/kg/injection, schedule: Q04DX003 (ip), vehicle: saline with Tween-80.
Where [3] appears, read: dose: 200.0 mg/kg/injection, schedule: Q04DX003 (ip), vehicle: saline with Tween-80.
The mark [4] stands for this setting: dose: 400.0 mg/kg/injection, schedule: Q04DX003 (ip), vehicle: saline with Tween-80.
Where [5] appears, read: dose: 50.0 mg/kg/injection, schedule: Q01DX009 (ip), vehicle: saline with Tween-80.
The mark [6] stands for this setting: dose: 100.0 mg/kg/injection, schedule: Q01DX009 (ip), vehicle: saline with Tween-80.
Setting [7] is: dose: 200.0 mg/kg/injection, schedule: Q01DX009 (ip), vehicle: saline with Tween-80.
The mark [8] stands for this setting: dose: 50.0 mg/kg/injection, schedule: Q01DX009 (ip), vehicle: saline.
Where [9] appears, read: dose: 100.0 mg/kg/injection, schedule: Q01DX009 (ip), vehicle: saline.
[10] abbreviates: dose: 400.0 mg/kg/injection, schedule: Q01DX009 (ip), vehicle: saline with Tween-80.

For `COC(=O)C(C#N)Cc1ccccc1Cl` (centres undefined), the T/C was 101 % of control under setting [1], 98 % of control under setting [2], 98 % of control under setting [3] and 97 % of control under setting [4].
As for `CCCCCCCCCCOP(=O)(O)OCCCCCCCCCC`, the T/C is, setting by setting: (dose: 12.5 mg/kg/injection, schedule: Q01DX009 (ip), vehicle: Klucel (hydroxypropylcellulose) (HPC)) 95 % of control; (dose: 25.0 mg/kg/injection, schedule: Q01DX009 (ip), vehicle: Klucel (hydroxypropylcellulose) (HPC)) 99 % of control; (dose: 50.0 mg/kg/injection, schedule: Q01DX009 (ip), vehicle: Klucel (hydroxypropylcellulose) (HPC)) 95 % of control.
Consider `CCCC(=O)Nc1ccc(N)cc1OC`, for which the T/C runs as follows: (dose: 5.0 mg/kg/injection, schedule: Q01DX009 (ip), vehicle: saline) 100 % of control; (dose: 5.0 mg/kg/injection, schedule: Q04DX003 (ip), vehicle: saline) 91 % of control; (dose: 10.0 mg/kg/injection, schedule: Q01DX009 (ip), vehicle: saline) 100 % of control; (dose: 10.0 mg/kg/injection, schedule: Q04DX003 (ip), vehicle: saline) 100 % of control; (dose: 20.0 mg/kg/injection, schedule: Q01DX009 (ip), vehicle: saline) 100 % of control; (dose: 20.0 mg/kg/injection, schedule: Q04DX003 (ip), vehicle: saline) 91 % of control.
Consider `Cc1cc(Cl)ccc1Nc1sc(C(=O)c2cc3cc(Cl)ccc3o2)c(N)c1C#N`, for which the T/C reads like this: under setting [5], 104 % of control; under setting [6], 93 % of control; under setting [7], 89 % of control.
In the same order, the values of `CC(C)(C)c1ccc(Sc2cccc3c2C(=O)c2ccccc2C3)cc1` are 92 % of control, 89 % of control and 89 % of control.
As to `Cc1ccc(C(=O)/C=C/N2CCN(c3ccccc3)CC2)c(C)c1`, the T/C was 100 % of control under setting [2], 100 % of control under setting [3] and 90 % of control under setting [4].
As for `c1ccc2c(c1)nnn1c3cnccc3nc21`, the T/C (dose: 6.25 mg/kg/injection, schedule: Q01DX009 (ip), vehicle: saline with Tween-80) is 120 % of control.
As for `O=C1CN=C(c2ccc[nH]2)c2cc(Cl)ccc2N1`, the T/C reads like this: (dose: 25.0 mg/kg/injection, schedule: Q01DX009 (ip), vehicle: saline with Tween-80) 118 % of control; (dose: 45.0 mg/kg/injection, schedule: Q01DX009 (oral), vehicle: saline) 104 % of control; under setting [5], 100 % of control; under setting [8], 97 % of control; (dose: 65.0 mg/kg/injection, schedule: Q01DX009 (oral), vehicle: saline) 100 % of control; (dose: 100.0 mg/kg/injection, schedule: Q01DX001 (ip), vehicle: saline with Tween-80) 95 % of control. For the same compound, the T/C is 90 % of control (dose: 100.0 mg/kg/injection, schedule: Q01DX001 (oral), vehicle: saline with Tween-80); 118 % of control under setting [6]; 105 % of control under setting [9]; 95 % of control (dose: 100.0 mg/kg/injection, schedule: Q01DX009 (oral), vehicle: saline with Tween-80); 104 % of control (dose: 200.0 mg/kg/injection, schedule: Q01DX001 (ip), vehicle: saline with Tween-80); 86 % of control (dose: 200.0 mg/kg/injection, schedule: Q01DX001 (oral), vehicle: saline with Tween-80). In addition, the T/C is, setting by setting: under setting [7], 118 % of control; (dose: 200.0 mg/kg/injection, schedule: Q01DX009 (ip), vehicle: saline) 97 % of control; (dose: 200.0 mg/kg/injection, schedule: Q01DX009 (oral), vehicle: saline with Tween-80) 104 % of control; (dose: 400.0 mg/kg/injection, schedule: Q01DX001 (ip), vehicle: saline with Tween-80) 90 % of control; (dose: 400.0 mg/kg/injection, schedule: Q01DX001 (oral), vehicle: saline with Tween-80) 95 % of control; under setting [10], 163 % of control. The T/C (dose: 400.0 mg/kg/injection, schedule: Q01DX009 (ip), vehicle: saline) was 103 % of control; the T/C (dose: 800.0 mg/kg/injection, schedule: Q01DX001 (ip), vehicle: saline with Tween-80) was 109 % of control; the T/C (dose: 800.0 mg/kg/injection, schedule: Q01DX001 (oral), vehicle: saline with Tween-80) is 100 % of control.
On to `O=C1NC(O)c2cc(CO)ccc2O1` (centres undefined), for which the T/C runs as follows: (dose: 50.0 mg/kg/injection, schedule: Q01DX005 (ip), vehicle: saline with Tween-80) 100 % of control; (dose: 100.0 mg/kg/injection, schedule: Q01DX005 (ip), vehicle: saline with Tween-80) 104 % of control; (dose: 200.0 mg/kg/injection, schedule: Q01DX005 (ip), vehicle: saline with Tween-80) 109 % of control.
For `Cc1ccc(S(=O)(=O)N(C)c2cc(Cl)c(C(N)=O)c(Cl)c2)cc1`, the T/C reads like this: (dose: 6.25 mg/kg/injection, schedule: Q01DX001 (ip), vehicle: saline sonified) 95 % of control; (dose: 12.5 mg/kg/injection, schedule: Q01DX001 (ip), vehicle: saline sonified) 100 % of control; (dose: 25.0 mg/kg/injection, schedule: Q01DX001 (ip), vehicle: saline sonified) 100 % of control; under setting [5], 112 % of control; under setting [6], 95 % of control; under setting [2], 105 % of control. The T/C is, setting by setting: under setting [7], 114 % of control; under setting [3], 97 % of control; under setting [10], 95 % of control; under setting [4], 106 % of control.
With `c1nnc(NCNc2nncs2)s1`, the T/C reads like this: (dose: 12.0 mg/kg/injection, schedule: Q04DX003 (ip), vehicle: saline) 100 % of control; (dose: 12.5 mg/kg/injection, schedule: Q01DX010 (ip), vehicle: saline) 204 % of control; (dose: 19.0 mg/kg/injection, schedule: Q04DX003 (ip), vehicle: saline) 118 % of control; (dose: 25.0 mg/kg/injection, schedule: Q01DX010 (ip), vehicle: saline) 227 % of control; (dose: 29.0 mg/kg/injection, schedule: Q04DX003 (ip), vehicle: saline) 186 % of control; (dose: 45.0 mg/kg/injection, schedule: Q04DX003 (ip), vehicle: saline) 177 % of control. Besides, the T/C by setting is: under setting [8], 100 % of control; (dose: 50.0 mg/kg/injection, schedule: Q01DX010 (ip), vehicle: saline) 90 % of control; (dose: 50.0 mg/kg/injection, schedule: Q04DX003 (ip), vehicle: saline) 190 % of control; (dose: 66.0 mg/kg/injection, schedule: Q04DX003 (ip), vehicle: saline) 150 % of control and 195 % of control; under setting [9], 100 % of control; (dose: 100.0 mg/kg/injection, schedule: Q04DX003 (ip), vehicle: saline) 227 % of control and 235 % of control and 195 % of control. Besides, the T/C (dose: 150.0 mg/kg/injection, schedule: Q04DX003 (ip), vehicle: saline) was 210 % of control and 213 % of control.
Regarding `OCC(O)C(O)C(O)C(O)C(O)CO` (centres undefined), the T/C reads like this: (dose: 100.0 mg/kg/injection, schedule: Q01DX010 (ip), vehicle: carboxymethylcellulose (CMC)) 100 % of control; (dose: 100.0 mg/kg/injection, schedule: Q01DX010 (ip), vehicle: saline) 95 % of control; (dose: 400.0 mg/kg/injection, schedule: Q01DX010 (ip), vehicle: carboxymethylcellulose (CMC)) 100 % of control; (dose: 400.0 mg/kg/injection, schedule: Q01DX010 (ip), vehicle: saline) 100 % of control.
Regarding `C=C(C)C1CC2(C)C(C)CC(O)CC2C(OC(=O)C=C(C)C)C1O` (centres undefined), the T/C by setting is: (dose: 0.75 mg/kg/injection, schedule: Q01DX009 (ip), vehicle: saline) 94 % of control; (dose: 1.5 mg/kg/injection, schedule: Q01DX009 (ip), vehicle: saline) 94 % of control; (dose: 3.0 mg/kg/injection, schedule: Q01DX009 (ip), vehicle: saline) 103 % of control; (dose: 6.0 mg/kg/injection, schedule: Q01DX009 (ip), vehicle: saline) 89 % of control.
For `COC(=O)c1ccc2oc(=O)cc(C)c2c1O`, the T/C is, setting by setting: under setting [2], 104 % of control; under setting [3], 100 % of control; under setting [4], 95 % of control.
For the compound `Cc1csc(/N=C/c2ccc([N+](=O)[O-])o2)n1`, the T/C is 109 % of control under setting [1], 118 % of control under setting [2] and 113 % of control under setting [3].
